Test results: patent publication US7335644B2, “Anti-hypertensive molecules and process for preparation thereof” (Council of Scientific and Industrial Research, priority 2003, dated 2008)

Tested on: arterial blood pressure of hypertensive Wistar rats
Conditions: 1 mg/kg

## C[C@H](CS)C(=O)N1CCC[C@H]1C(=O)O [captopril]
Reference inhibitor
  fall of blood pressure: 60 mm Hg
  time during which still quite effective in blocking angiotensin-converting enzyme: ≥ 180 min
Reference inhibitor (not shown)
  time for blood pressure to return to baseline: 240 min
